Here are results for eight molecules from patent US12618044B2, “Specification of functional cranial placode derivatives from human pluripotent stem cells” (MEMORIAL SLOAN-KETTERING CANCER CENTER, priority 2013, dated 2026).

What all share (type): cell-based, human
Test [1] relates to SIX1::GFP cells. In words: High throughput screen for compounds that promote placode induction. Particulars: added at day 3, imaged at day 6. As to the method:
High throughput screen for compounds that promote placode induction: SIX1::GFP cells were cultured according to the PIP-E6 protocol. 1280 test compounds were screened for their ability to enhance placode induction. Each test compound was added to the cell culture media at day 3, and cells were imaged to determine the level of placode induction at day 6. (FIG. 60).

In a further test the test system is hESC. In words: Placode induction from hESC (N-SB versus PIP, SIX1 expression). Particulars: for placode fate: high concentrations, starting at day 3 of PIP. The procedure:
A timed withdrawal of the BMP inhibitor Noggin during N-SB differentiation was also tested to determine if placodal fates could be induced via derepressing endogenous BMP signaling. A time course analysis was performed during which Noggin was removed at different time points of the N-SB protocol (FIG. 28A).
Withdrawal of the BMP inhibitor noggin during N-SB differentiation may enhance the emergence of placodal fates by de-repressing endogenous BMP signaling. To this end, a time course study was performed by removing noggin at different time points of the NSB protocol (FIG. 11A) while monitoring the induction of placodal marker (FIG. 11B) trophoectodermal, neurectodermal by qRT-PCR analysis at day 11 of differentiation. Withdrawal of noggin at day 2 or 3 of differentiation yielded efficient induction of Six1 while noggin withdrawal at day 1 of differentiation lead to the induction of Eya1 in the absence of Six1 expression.
Neural Induction and placode induction: Feeder-free neural induction was carried out as previously described (Chambers et al., 2009). Briefly, hESCs cultures were disaggregated using accutase for 20 minutes, washed using hESCs media and pre-plated on gelatin for 1 hour at 37° C. in the presence of ROCK inhibitor to remove MEFs. The non-adherent hESCs were washed and plated on matrigel at a density of 60,000 cells/cm2 on matrigel (BD) coated dishes in MEF conditioned hESCs media (CM) spiked with 10 ng/mL of FGF-2 and ROCK-inhibitor. The ROCK inhibitor was withdrawn after 24 hours, and hESCs were allowed to expand in CM for 2 days or until they were 95% confluent. The initial differentiation media conditions included knock out serum replacement (KSR) media with 10 μM TGF-β inhibitor (SB431542, Tocris) and 250 ng/mL of Noggin (R&D). Upon day 5 of differentiation, increasing amounts of N2 media (25%, 50%, and 75%) were added to the KSR media every two days while maintaining […] of Noggin and TGF-β inhibitor. Similar results could be obtained when using KSR-free conditions (E6 medium (Chen et al., 2011)) following adjustments in BMP signaling; data not shown). For placode induction, Noggin was removed at day3 of differentiation. In some experiments, BMP-4 (R&D 50 ng/ml), Noggin (R&D 250 ng/ml), DKK-1 (R&D 100 ng/ml), FGF8 (R&D 50 ng/ml), SU5402 (Tocris 10 μM), Wnt-3a (R&D 50 ng/ml), DAPT (Tocris, 10 μM), CHIR99021 (Stemgent, 3 μM), Cyclopamine (Tocris, 10 μM), Sonic Hedgehog (C25II-R&D 100 ng/ml), and Purmorphamine (Stemgent, 1 μM), were added.
Microscopy, antibodies, and flow cytometry: Cells were fixed using 4% paraformaldehyde for 15 minutes, washed with PBS, permeabilized using 0.3% Triton X in PBS, and blocked using 1% BSA. Primary antibodies used for microscopy included PAX6 (Covance, DSHB), TUJ1 (Covance), BRN3A (Chemicon), AP2a (DSHB), HNK1 (Sigma), PAX3 (DSHB), SIX1 (ABR, Atlas), ISL1 (DSHB), PERIPHERIN (Santa Cruz), GSU (gift A. McNeilly), CRYAB (Chemicon), DACH1 (Proteintech), EYA1 (gift Kawakami), E-CADHERIN (Abcam), FSH (gift A. McNeilly), GATA2 (Abcam), chick GFP (Abcam), hNCAM (Santa Cruz), GLUTAMATE (Sigma), KRT14 (Labvision), SIX6 (Atlas), LHX3 (Abcam), OVOL2 (Aviva), TFAP2A (DSHB), FOXG1 (gift E. Lai), hCA (Stem Cells), and Ki67 (Sigma). Appropriate Alexa 488, Alexa 568, Alexa 647 secondary antibodies (Molecular Probes) and/or DAPI counterstaining was used for visualization. For Flow Cytometry, cells were mechanically dissociated after exposure to accutase for 20 min at 25° C. To eliminate dead cell populations in FACS analysis, we used DAPI or 7-AAD according to manufacturer's recommendation. Cells were analyzed using FACScan (Becton Dickinson) and FlowJo software (Tree Star, Inc.).

For test [2], the system named is SIX1::H2B-GFP reporter cells. In words: PIP-E6 placode induction in E8/E6 media. An excerpt:
PIP protocol using E8/E6 cell culture media: E8/E6 cell culture media (Essential8™/Essential6™, Nat Methods. 2011 May; 8(5):424-9) comprises the ingredients DMEM/F12, ascorbic acid, selenum, insulin, NaHCO3, transferrin, FGF2 and TGFβ. […] The present example describes a modified PIP protocol that utilizes the BMP deficient E8/E6 media.
A Six1 knock in GFP reporter cell line (SIX1::H2B-GFP) was developed to monitor when cells have been transformed to a placode fate. (FIGS. 41A-41E). Culturing the reporter cells in E8/E6 media according to the KSR PIP protocol described herein, in which cells were cultured in media comprising the SMAD inhibitors SB431542 and LDN193189, wherein LDN193189 was withdrawn after 2 days of culture, yielded low levels of placode cells after 11 days of culture. (FIGS. 42A-42B). BMP4, which is not present in E8/E6 media, is necessary for cells to differentiate into non-neural ectoderm and placode, as evidenced by expression of the marker AP2. (FIGS. 43A-43C). […] (FIGS. 44A-44C). […] (FIGS. 45A-45B). […] (FIGS. 46 and 47). Although the yield of induced placode cells was low using the PIP-E6 protocol, the induction was highly consistent compared to the KSR PIP protocol. (FIG. 48).
In order to make the trigeminal placode fate the default fate when culturing using the PIP-E6 protocol, PIP-E6 was modified by adding CHIR (Wnt activator) to the culture protocol. […] (FIGS. 49A-49B). FIG. 50 depicts the pituitary, lens and trigeminal placodes that can be induced using the PIP-E6 culture protocol.

In another test the test system is pre-placode cells. Kind of test: Lens placode specification (PITX3 qRT-PCR). The note with it: added days 7-11, read at day 16. As to the method:
The impact of four developmental signaling pathways on lens placode specification was tested by using activators and inhibitors of BMP, FGF, WNT, and Hedgehog signaling. To quantify the induction of lens placode fate, the lens precursor marker PITX3 expression was monitored at day 16 of differentiation (FIG. 37B). […] A role for BMPs and FGFs has been previously proposed in developmental studies in the chick (Sjödal et al., 2007). […] The characteristic layering of lens fibers (FIG. 36H, right panel) mimicked the structural properties of developing lens in vivo.

Test [3] concerns SIX1::GFP cells. In words: PIP-E6 pituitary induction and hormone release. The note with it: for number of putative pituitary stem cells (Ki67 and Sox2): days 6-14. As to the method:
Induction of anterior pituitary gland cells: Pituitary placode cells were induced by culturing SIX1::GFP cells according to the PIP-E6 protocol, wherein pituitary factors SHH, FGF8, FGF10 and/or hypothalamus CM were supplemented in the culture media from days 6-15.
Induction of anterior pituitary gland cells: SIX1::GFP hPSCs were cultured according to a modified PIP-E6 protocol, wherein pituitary factors such as FGF8, FGF10 or SHH, etc., were included in the culture media from days 6-14. Cells were sorted based on expression of SIX1::GFP, and were replated at a concentration of 10,000 cells/cm^2 on PO/L/F, and were incubated with small molecule/growth factors for 2 weeks. (FIG. 68). […] (FIG. 69).

Another test deals with hESC derived FP. Kind of test: A/P respecification of hESC derived FP by caudalizing factors. The procedure:
For MS5 induction, established methods previously reported were used (Perrier et al., 2004). Feeder free neural induction was carried out as previously described (Chambers et al., 2009). Briefly, hESCs cultures were disaggregated using accutase for 20 minutes, washed using hESCs media and pre-plated on gelatin for 1 hour at 37° C. in the presence of ROCK inhibitor to remove MEFs. The nonadherent hESCs were washed and plated on matrigel at a density of 20,000 cells/cm2 on matrigel (BD) coated dishes in MEF conditioned hESCs media (CM) spiked with 10 ng/mL of FGF-2 and ROCK-inhibitor. The ROCK inhibitor was withdrawn, and hESCs were allowed to expand in CM for 3 days or until they were nearly confluent. The initial differentiation media conditions included knock out serum replacement (KSR) media with […] TGF-b inhibitor (SB431542, Tocris) and 500 ng/mL of Noggin (R&D). Upon day 5 of differentiation, increasing amounts of N2 media (25%, 50%, 75%) was added to the KSR media every two days while maintaining 500 ng/mL of Noggin and TGF-b inhibitor. For FP induction, Sonic C25II was added at 200 ng/ml. In some experiments, DKK-1 (R&D 100 ng/ml) FGF8 (R&D 50 ng/ml), Wnt-1 (Peprotech 50 ng/ml) and Retinoic Acid (R&D 1 uM) were added.
The inventors contemplated the use of SIX6 as a putative marker of anterior FP identity. Thus SIX6 status of the hESC derived FP was used to mark respecification in response to known caudalizing agents such as FGF8, Wnt-1, and Retinoic Acid. Each of these caudalizing factors was added in combination with SHH and the resulting tissue was assessed for expression of the FP markers FOXA2 and NETRIN-1, the AN marker BF1, and putative anterior FP marker SIX6. FP generation was found not compromised in the presence of caudalizing factors.
The inventors discovered that different factors had varied effects on marker expression (FIG. 20C).
As mentioned above, studies had identified different enhancers that directed SHH expression to different A/P region along ventral axis (Jeong et al., 2008). […] In the absence of caudalizing factors (SHH C25II alone), LacZ expression was observed herein following transfection with the SBE2 but not the SBE1 enhancer supporting the hypothesis that hESC derived FP is anterior by default (FIG. 20D). In contrast SBE2 activity was abolished upon treatment with Wnt1 or FGF8 while SBE1 activity was induced under these conditions.

Where no end group is shown, it is not given here.

As for `CN1CCC(c2c[nH]c3ccc(O)cc23)CC1` [BRL-54443], the placode induction result in the test on SIX1::GFP cells [1] is recorded as “promoting placode induction”.
For the molecule `Cc1c[nH]c(-c2cnc(NCCNc3ccc(C#N)cn3)nc2-c2ccc(Cl)cc2Cl)n1` [CHIR99021], in the test with hESC, the placode fate entry is on record as “suppressed placode”. Further, in test [2] (days 2-4 of the PIP-E6 protocol), the default placode fate result was “induction of trigeminal placodes”.
With `O.c1cnc2c(c1)ccc1cccnc12` [Phenanthroline monohydrate], the placode induction result with SIX1::GFP cells [1] is reported as “promoting placode induction”.
Consider `Cc1c[nH]c(/C=C2\C(=O)Nc3ccccc32)c1CCC(=O)O` [SU5402], for which, in the test with hESC (day 3-11 of PIP), the TFAP2A expression entry was “maintaining” and the “emergence of SIX1+ clusters” value was “suppressed”. In addition, the “placode marker (SIX1) gene expression” value in the test on hESC (day 11) was “complete loss”. The “KRT14 mature keratinocyte marker” value in the test on hESC (long-term cultures (day 42-60)) is on record as “robust induction”. Further, in the test on pre-placode cells, the PITX3 expression entry is reported as “significantly induced”.
Consider FGF2: growth factor, for which the “number of putative pituitary stem cells (Ki67 and Sox2)” value in the test with SIX1::GFP cells [3] is on record as “may increase”.
With “somatocrinin: external stimulus causing growth hormone release (YADAIFTNSYRKVLGQLSARKLLQDIMSRQQGESNQERGARARL; ends and bridges not checked; UniProt P01286 32-75, looked up)”, the “growth hormone (GH) release” value in the test on SIX1::GFP cells [3] (hormone expressing cells) is on record as “released growth hormone (GH)”.

B1: FGF8: caudalizing factor / pituitary patterning factor (protein, UniProt P55075 23-233, looked up)
Fibroblast growth factor 8: QEGPGRGPALGRELASLFRAGREPQGVSQQHVREQSLVTDQLSRRLIRTYQLYSRTSGKHVQVLANKRINAMAEDGDPFAKLIVETDTFGSRVRVRGAETGLYICMNKKGKLIAKSNGKGKDCVFTEIVLENNYTALQNAKYEGWYMAFTRKGRPRKGSKTRQHQREVHFMKRLPRGHHTTEQSLRFEFLNYPPFTRSLRGSQRTWAPEPR
For B1, the ASCL1 expression entry in the test with hESC (pre-placode cells) is “enriches”. In addition, in the test with hESC derived FP (SHH enhancer LacZ construct), the SBE1 activity entry was “induced” and the SBE2 activity entry is listed as “abolished”. In the test on hESC derived FP (in combination with SHH), the SIX6 expression result is “significant reduction”. Moreover, the “number of putative pituitary stem cells (Ki67 and Sox2)” value in the test with SIX1::GFP cells [3] is “may increase”.

B2: BMP4: recombinant bone morphogenetic protein-4, activator of BMP signaling (protein, UniProt P12644 293-408, looked up)
Bone morphogenetic protein 4: SPKHHSQRARKKNKNCRRHSLYVDFSDVGWNDWIVAPPGYQAFYCHGDCPFPLADHLNSTNHAIVQTLVNSVNSSIPKACCVPTELSAISMLYLDEYDKVVLKNYQEMVVEGCGCR
For the molecule B2, in the test on hESC, the placode fate result is given as “suppressed placode”. For the same molecule, the CDX2 induction result in the test with hESC (in the presence of SB) was “triggered induction of CDX2”. The PITX3 expression entry in the test with pre-placode cells is listed as “significantly induced”. Also, the cell fate induced entry was “placode development” in test [2] (5 ng/ml, with SB431542, withdrawn after 3 days) and “induction of non-neural ectoderm” in test [2] (20 ng/ml). Also, the “yield of placode precursors” value in test [2] (5 ng/ml, withdrawn after 3 days versus 1 or 2 days, 6 total days) is “highest yield of placode precursors”.
